Data published in patent US7166621B2, “Pyridyloxyalkanoic acid amide derivatives useful as fungicides” (priority 2001, dated 2007).

Key:
Phytophthora infestans = assay: whole plant or invertebrate; type: in vivo; conditions: in Solanum lycopersicum, foliar, 96 h, read-out: control of Phytophthora infestans
Plasmopara viticola = assay: Leaf disk assay, downy mildew of grapevine, preventive fungicidal activity; type: in vivo; conditions: foliar, 168 h
[1] = grapevine leaf disks, preventive, assessed seven days after inoculation

SMILES: CCC#CC(C)(C)NC(=O)C(CC)Oc1cncc(C(=O)O)c1 (centres unmarked)
- melting point: 162 to 164 °C

SMILES: CC#CC(C)(C)NC(=O)C(CC)Oc1cncc(Br)c1 (single isomer, unassigned; (-)) [(−) isomer of Compound 13 of Table 1, (−) 2-(5-bromo-3-pyridyloxy)-N-(4-methylpent-2-yn-4-yl)butyramide]
- pest or weed control at 200 ppm (Phytophthora infestans): ≥ 70%

SMILES: CCC#CC(C)(C)NC(=O)C(CC)Oc1cncc(Cl)c1 (centres unmarked) [Compound No. 1 of Table 1, 2-(5-chloro-3-pyridyloxy)N-(2-methylhex-3-yn-2-yl)butyramide]
- pest or weed control at 200 ppm (Plasmopara viticola; [1]): ≥ 70%

SMILES: CC#CC(C)(C)NC(=O)C(CCC)Oc1cncc(Cl)c1 (centres unmarked) [Compound No. 3 of Table 1, 2-(5chloro-3-pyridyloxy)-N-(2-methylpent-3-yn-2-yl)valeramide]
- pest or weed control at 200 ppm (Phytophthora infestans): ≥ 70%
- pest or weed control at 200 ppm (Plasmopara viticola; [1]): ≥ 70%

SMILES: CC#CC(C)(C)NC(=O)C(CC)Oc1cncc(Cl)c1 (centres unmarked) [Compound No. 8 of Table 1, 2-(5-chloro-3-pyridyloxy)-N-(2-methylpent-3-yn-2-yl)butyramide]
- pest or weed control at 200 ppm (Plasmopara viticola; [1]): ≥ 70%

SMILES: CC#CC(C)(C)N(C)C(=O)C(CC)Oc1cncc(Cl)c1 (centres unmarked) [Compound No. 10 of Table 1, 2-(5-chloro-3-pyridyloxy)-N-methyl-N-(2-methylpent-3-yn-2-yl)butyramide]
- pest or weed control at 200 ppm (Plasmopara viticola; [1]): ≥ 70%

SMILES: CC#CC(C)(C)NC(=O)Cc1ccccc1Oc1cncc(Cl)c1 [Compound No. 11 of Table 1, 2-(5-chloro-3-pyridyloxy)-N-(2-methylpent-3-yn-2-yl)phenylacetamide]
- pest or weed control at 200 ppm (Phytophthora infestans): ≥ 70%

SMILES: CC#CC(C)(C)NC(=O)C(CC)Oc1cncc(Br)c1 (centres unmarked) [Compound No. 13 of Table 1, 2-(5-bromo-3-pyridyloxy)-N-(2-methylpent-3-yn-2-yl)butyramide]
- pest or weed control at 200 ppm (Plasmopara viticola; [1]): ≥ 70%

SMILES: CCC#CC(C)(C)NC(=O)C(CC)Oc1cncc(Br)c1 (centres unmarked) [Compound No. 14 of Table 1, 2-(5-bromo-3-pyridyloxy)-N-(2-methylhex-3-yn-2-yl)butyramide]
- pest or weed control at 200 ppm (Plasmopara viticola; [1]): ≥ 70%

SMILES: CCC#CC(C)(C)NC(=O)C(CC)Oc1cncc(C(=O)N(C(C)C)C(C)C)c1 (centres unmarked) [Compound No. 15 of Table 1, 2-(5-(N,N-diisopropylaminocarbonyl)-3-pyridyloxy)-N-(5-methylhex-3-yn-5-yl)butyramide]
- pest or weed control at 200 ppm (Phytophthora infestans): ≥ 70%
- pest or weed control at 200 ppm (Plasmopara viticola; [1]): ≥ 70%

SMILES: CC#CC(C)(C)NC(=O)C(COC)Oc1cncc(Cl)c1 (centres unmarked) [Compound No. 21 of Table 1, 2-(5-chloro-3-pyridyloxy)-N-(4-methylpent-2-yn-4-yl)-3-methoxypropionamide]
- pest or weed control at 200 ppm (Plasmopara viticola): ≥ 70%

SMILES: CCC(Oc1cncc(Cl)c1)C(=O)NC(C#CC(C)C)OC (centres unmarked) [Compound No. 49 of Table 1, 2-(5-chloro-3-pyridyloxy)-N-(1-methoxy-4-methylpent-2-ynyl)butyramide]
- pest or weed control at 200 ppm (Plasmopara viticola): ≥ 70%

SMILES: CCCC#CC(C)(C)NC(=O)C(CC)Oc1cncc(Cl)c1 (centres unmarked) [Compound No. 120 of Table 1, 2-(5-chloro-3-pyridyloxy)-N-(6-methylhept-4-yn-6-yl)butyramide]
- pest or weed control at 200 ppm (Plasmopara viticola; [1]): ≥ 70%
- melting point: 70 to 71 °C

SMILES: CCCC#CC(C)(C)NC(=O)C(CC)Oc1cncc(Br)c1 (centres unmarked) [Compound No. 128 of Table 1, 2-(5-bromo-3-pyridyloxy)-N-(6-methylhept4-yn-6-yl)butyramide]
- pest or weed control at 200 ppm (Phytophthora infestans): ≥ 70%
- pest or weed control at 200 ppm (Plasmopara viticola; [1]): ≥ 70%

SMILES: CC#CC(C)(CC)NC(=O)C(CC)Oc1cncc(Cl)c1 (centres unmarked) [Compound No. 136 of Table 1, 2-(5chloro-3-pyridyloxy)-N-(4methylhex-2-yn-4-yl)butyramide]
- pest or weed control at 200 ppm (Plasmopara viticola; [1]): ≥ 70%

SMILES: CC#CC(C)(C)NC(=O)C(CC)Oc1cnc(Cl)c(Cl)c1 (centres unmarked) [Compound No. 247 of Table 1, 2-(5,6-dichloro-3-pyridyloxy)-N-(4-methylpent-2-yn-4-yl)butyramide]
- pest or weed control at 200 ppm (Plasmopara viticola): ≥ 70%

SMILES: CCC(Oc1cnc(Cl)c(Cl)c1)C(=O)NC(C)(C)C#CCOC (centres unmarked) [Compound No. 259 of Table 1, 2-(5,6-dichloro-3-pyridyloxy)-N-(1-methoxy-4-methylpent-2-yn-4-yl)butyramide]
- pest or weed control at 200 ppm (Plasmopara viticola): ≥ 70%

SMILES: CC#CC(C)(C)NC(=O)C(CC)Oc1cncc(Oc2ccccc2)c1SC (centres unmarked) [Compound No. 263 of Table 1, 2-(4-methylthio-5-phenoxy-3-pyridyloxy)-N-(4-methylpent-2-yn-4-yl)butyramide]
- pest or weed control at 200 ppm (Phytophthora infestans): ≥ 70%
- pest or weed control at 200 ppm (Plasmopara viticola): ≥ 70%

SMILES: CC#CC(C)(C)NC(=O)C(CC)Oc1cncc(C(C)=O)c1 (centres unmarked) [Compound No. 326 of Table 1, 2-(5-acetyl-3-pyridyloxy)-N-(4-methylpent-2-yn-4-yl)butyramide]
- pest or weed control at 200 ppm (Phytophthora infestans): ≥ 70%

SMILES: CC#CC(C)(C)NC(=O)C(CC)Oc1cncc(C#N)c1 (centres unmarked) [Compound No. 342 of Table 1, 2-(5-cyano-3-pyridyloxy)-N-(4-methylpent-2-yn-4-yl)butyramide]
- pest or weed control at 200 ppm (Phytophthora infestans): ≥ 70%
- pest or weed control at 200 ppm (Plasmopara viticola): ≥ 70%

SMILES: C#Cc1cncc(OC(CC)C(=O)NC(C)(C)C#CC)c1 (centres unmarked) [Compound No. 358 of Table 1, 2-(5-ethynyl-3-pyridyloxy)-N-(4-methylpent-2-yn-4-yl)butyramide]
- pest or weed control at 200 ppm (Plasmopara viticola): ≥ 70%

SMILES: C=Cc1cncc(OC(CC)C(=O)NC(C)(C)C#CC)c1 (centres unmarked) [Compound No. 374 of Table 1, 2-(5-ethenyl-3-pyridyloxy)-N-(4-methylpent-2-yn-4-yl)butyramide]
- pest or weed control at 200 ppm (Phytophthora infestans): ≥ 70%

SMILES: C=C(OCC)c1cncc(OC(CC)C(=O)NC(C)(C)C#CC)c1 (centres unmarked) [Compound No. 378 of Table 1, 2-[5-(1-ethoxyethen-1-yl)-3-pyridyloxy]-N-(4-methylpent-2-yn-4-yl)butyramide]
- pest or weed control at 200 ppm (Phytophthora infestans): ≥ 70%
